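The concentration for 50% growth inhibition is given as GI50. TGI denotes the concentration required for complete inhibition of growth.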
Tests used:
Assay in all cases: NCI tumour cell line growth inhibition, 384-well format
[1] = tested on: 786-0 renal
[2] = tested on: A498 renal
[3] = tested on: A549 NSCLC
[4] = tested on: ACHN renal
[5] = tested on: BT-549 breast
[6] = tested on: CAKI-1 renal
[7] = tested on: CCRF-CEM leukemia
[8] = tested on: COLO 205 colon
[9] = tested on: DU-145 prostate
[10] = tested on: EKVX NSCLC
[11] = tested on: HCC-2998 colon
[12] = tested on: HCT-116 colon
[13] = tested on: HCT-15 colon
[14] = tested on: HL-60(TB) leukemia
[15] = tested on: HOP-62 NSCLC
[16] = tested on: HOP-92 NSCLC
[17] = tested on: HS 578T breast
[18] = tested on: HT29 colon
[19] = tested on: IGROV1 ovarian
[20] = tested on: K-562 leukemia
[21] = tested on: KM12 colon
[22] = tested on: LOX IMVI melanoma
[23] = tested on: M14 melanoma
[24] = tested on: MALME-3M melanoma
[25] = tested on: MCF7 breast
[26] = tested on: MDA-MB-231 breast
[27] = tested on: MDA-MB-435 melanoma
[28] = tested on: MDA-MB-468 breast
[29] = tested on: MOLT-4 leukemia
[30] = tested on: NCI-H226 lung
[31] = tested on: NCI-H23 lung
[32] = tested on: NCI-H322M lung
[33] = tested on: NCI-H460 NSCLC
[34] = tested on: NCI-H522 lung
[35] = tested on: NCI/ADR-RES ovarian
[36] = tested on: OVCAR-3 ovarian
[37] = tested on: OVCAR-4 ovarian
[38] = tested on: OVCAR-5 ovarian
[39] = tested on: PC-3 prostate
[40] = tested on: RPMI-8226 leukemia
[41] = tested on: RXF 393 renal
[42] = tested on: SF-268 CNS
[43] = tested on: SF-295 CNS
[44] = tested on: SF-539 CNS
[45] = tested on: SK-MEL-2 melanoma
[46] = tested on: SK-MEL-28 melanoma
[47] = tested on: SK-MEL-5 melanoma
[48] = tested on: SK-OV-3 ovarian
[49] = tested on: SN12C renal
[50] = tested on: SNB-19 CNS
[51] = tested on: SNB-75 CNS
[52] = tested on: SR leukemia
[53] = tested on: SW-620 colon
[54] = tested on: T-47D breast
[55] = tested on: TK-10 renal
[56] = tested on: U251 glioblastoma
[57] = tested on: UACC-257 melanoma
[58] = tested on: UACC-62 melanoma
[59] = tested on: UO-31 renal

Question: How did the GI50 [1] turn out when `NCCCCN(Cc1nc2ccccc2[nH]1)[C@H]1CCCc2cccnc21` was run?
Answer: Its GI50 is 8.34 µM.

Question: What about the TGI [1] of the same compound?
Answer: Its TGI is 31.3 µM.

Question: And the GI50 [2]?
Answer: The GI50 was 14.7 µM.

Question: What about the TGI [2] of the same compound?
Answer: Its TGI is 44.2 µM.

Question: What about the GI50 [3] of the same compound?
Answer: Its GI50 is 9.68 µM.

Question: And the TGI [3]?
Answer: Its TGI is 28.4 µM.

Question: What about the GI50 [4] of the same compound?
Answer: The GI50 was 17.3 µM.

Question: What about the TGI [4] of the same compound?
Answer: Its TGI is 35.9 µM.

Question: And the GI50 [5]?
Answer: The GI50 was 7.45 µM.

Question: And the TGI [5]?
Answer: Its TGI is 28.5 µM.

Question: And the GI50 [6]?
Answer: The GI50 was 7.89 µM.

Question: And the TGI [6]?
Answer: The TGI was 22.5 µM.

Question: And the GI50 [7]?
Answer: Its GI50 is 5.43 µM.

Question: What about the TGI [7] of the same compound?
Answer: The TGI was 18.5 µM.

Question: And the GI50 [8]?
Answer: The GI50 was 2.35 µM.

Question: What about the TGI [8] of the same compound?
Answer: The TGI was 5.73 µM.

Question: And the GI50 [9]?
Answer: Its GI50 is 7.23 µM.

Question: What about the TGI [9] of the same compound?
Answer: Its TGI is over 100 µM.

Question: And the GI50 [10]?
Answer: The GI50 was 8.83 µM.

Question: What about the TGI [10] of the same compound?
Answer: Its TGI is 24.5 µM.

Question: And the GI50 [11]?
Answer: Its GI50 is 4.63 µM.

Question: And the TGI [11]?
Answer: The TGI was 18.4 µM.

Question: And the GI50 [12]?
Answer: The GI50 was 5.3 µM.

Question: And the TGI [12]?
Answer: The TGI was 20.5 µM.

Question: What about the GI50 [13] of the same compound?
Answer: The GI50 was 13.9 µM.

Question: And the TGI [13]?
Answer: The TGI was 32.2 µM.

Question: What about the GI50 [14] of the same compound?
Answer: Its GI50 is 1.35 µM.

Question: And the TGI [14]?
Answer: The TGI was 2.82 µM.

Question: And the GI50 [15]?
Answer: Its GI50 is 3.94 µM.

Question: And the TGI [15]?
Answer: The TGI was 19 µM.

Question: What about the GI50 [16] of the same compound?
Answer: The GI50 was 2.7 µM.

Question: What about the TGI [16] of the same compound?
Answer: Its TGI is 13.4 µM.

Question: And the GI50 [17]?
Answer: The GI50 was 4.57 µM.

Question: And the TGI [17]?
Answer: Its TGI is 18.4 µM.

Question: And the GI50 [18]?
Answer: Its GI50 is 3.6 µM.

Question: What about the TGI [18] of the same compound?
Answer: Its TGI is 13.4 µM.

Question: And the GI50 [19]?
Answer: Its GI50 is 5.7 µM.

Question: What about the TGI [19] of the same compound?
Answer: The TGI was 19.1 µM.

Question: What about the GI50 [20] of the same compound?
Answer: Its GI50 is 10.2 µM.

Question: And the TGI [20]?
Answer: The TGI was 22.5 µM.

Question: What about the GI50 [21] of the same compound?
Answer: Its GI50 is 6.23 µM.

Question: What about the TGI [21] of the same compound?
Answer: The TGI was 33.8 µM.

Question: And the GI50 [22]?
Answer: The GI50 was 9.28 µM.

Question: And the TGI [22]?
Answer: Its TGI is 23 µM.

Question: What about the GI50 [23] of the same compound?
Answer: The GI50 was 5.75 µM.

Question: What about the TGI [23] of the same compound?
Answer: The TGI was 18.4 µM.

Question: What about the GI50 [24] of the same compound?
Answer: Its GI50 is 11.9 µM.

Question: What about the TGI [24] of the same compound?
Answer: The TGI was 24.3 µM.

Question: And the GI50 [25]?
Answer: The GI50 was 7.6 µM.

Question: And the TGI [25]?
Answer: The TGI was 25.9 µM.

Question: What about the GI50 [26] of the same compound?
Answer: Its GI50 is 4.42 µM.

Question: What about the TGI [26] of the same compound?
Answer: Its TGI is 23.6 µM.

Question: And the GI50 [27]?
Answer: Its GI50 is 7.39 µM.

Question: What about the TGI [27] of the same compound?
Answer: The TGI was 23.3 µM.

Question: And the GI50 [28]?
Answer: Its GI50 is 2.81 µM.

Question: And the TGI [28]?
Answer: Its TGI is 8.14 µM.

Question: And the GI50 [29]?
Answer: Its GI50 is 1.31 µM.

Question: And the TGI [29]?
Answer: Its TGI is 2.84 µM.

Question: What about the GI50 [30] of the same compound?
Answer: Its GI50 is 10.4 µM.

Question: And the TGI [30]?
Answer: The TGI was 23.5 µM.

Question: And the GI50 [31]?
Answer: The GI50 was 4.94 µM.

Question: And the TGI [31]?
Answer: Its TGI is 22.9 µM.

Question: What about the GI50 [32] of the same compound?
Answer: The GI50 was 4.64 µM.

Question: And the TGI [32]?
Answer: Its TGI is 24.6 µM.

Question: And the GI50 [33]?
Answer: The GI50 was 4.47 µM.

Question: What about the TGI [33] of the same compound?
Answer: The TGI was 18.1 µM.

Question: What about the GI50 [34] of the same compound?
Answer: Its GI50 is 2.68 µM.

Question: What about the TGI [34] of the same compound?
Answer: Its TGI is 18.6 µM.

Question: And the GI50 [35]?
Answer: Its GI50 is 16 µM.

Question: What about the TGI [35] of the same compound?
Answer: Its TGI is 31.6 µM.

Question: What about the GI50 [36] of the same compound?
Answer: Its GI50 is 2.2 µM.

Question: And the TGI [36]?
Answer: Its TGI is 15.9 µM.

Question: What about the GI50 [37] of the same compound?
Answer: The GI50 was 4.66 µM.

Question: What about the TGI [37] of the same compound?
Answer: The TGI was 26.2 µM.

Question: What about the GI50 [38] of the same compound?
Answer: Its GI50 is 5.13 µM.

Question: What about the TGI [38] of the same compound?
Answer: The TGI was 28.2 µM.

Question: What about the GI50 [39] of the same compound?
Answer: The GI50 was 6.25 µM.

Question: And the TGI [39]?
Answer: Its TGI is 40.8 µM.

Question: What about the GI50 [40] of the same compound?
Answer: The GI50 was 5.63 µM.

Question: And the TGI [40]?
Answer: Its TGI is 19.1 µM.

Question: What about the GI50 [41] of the same compound?
Answer: Its GI50 is 4.56 µM.

Question: What about the TGI [41] of the same compound?
Answer: Its TGI is 21.4 µM.

Question: What about the GI50 [42] of the same compound?
Answer: Its GI50 is 5.51 µM.

Question: What about the TGI [42] of the same compound?
Answer: Its TGI is 35.1 µM.

Question: And the GI50 [43]?
Answer: The GI50 was 8.81 µM.

Question: What about the TGI [43] of the same compound?
Answer: Its TGI is 22.1 µM.

Question: What about the GI50 [44] of the same compound?
Answer: Its GI50 is 9.07 µM.

Question: And the TGI [44]?
Answer: Its TGI is 21.3 µM.

Question: And the GI50 [45]?
Answer: Its GI50 is 20.3 µM.

Question: And the TGI [45]?
Answer: Its TGI is 34.7 µM.

Question: And the GI50 [46]?
Answer: Its GI50 is 11.4 µM.

Question: And the TGI [46]?
Answer: The TGI was 24.3 µM.

Question: And the GI50 [47]?
Answer: The GI50 was 2.62 µM.

Question: And the TGI [47]?
Answer: The TGI was 15.9 µM.

Question: What about the GI50 [48] of the same compound?
Answer: Its GI50 is 9.63 µM.

Question: And the TGI [48]?
Answer: The TGI was 40.4 µM.

Question: What about the GI50 [49] of the same compound?
Answer: The GI50 was 9.33 µM.

Question: What about the TGI [49] of the same compound?
Answer: The TGI was 52.2 µM.

Question: What about the GI50 [50] of the same compound?
Answer: Its GI50 is 18 µM.

Question: What about the TGI [50] of the same compound?
Answer: Its TGI is over 100 µM.

Question: What about the GI50 [51] of the same compound?
Answer: Its GI50 is 4.2 µM.

Question: And the TGI [51]?
Answer: Its TGI is 18.1 µM.

Question: What about the GI50 [52] of the same compound?
Answer: The GI50 was 1.3 µM.

Question: And the TGI [52]?
Answer: The TGI was 2.59 µM.

Question: What about the GI50 [53] of the same compound?
Answer: The GI50 was 10.4 µM.

Question: What about the TGI [53] of the same compound?
Answer: The TGI was 34.1 µM.

Question: And the GI50 [54]?
Answer: The GI50 was 12.7 µM.

Question: And the TGI [54]?
Answer: Its TGI is 32.1 µM.

Question: What about the GI50 [55] of the same compound?
Answer: The GI50 was 10.6 µM.

Question: And the TGI [55]?
Answer: The TGI was 23.6 µM.

Question: And the GI50 [56]?
Answer: Its GI50 is 6.5 µM.

Question: What about the TGI [56] of the same compound?
Answer: Its TGI is 25.9 µM.

Question: And the GI50 [57]?
Answer: The GI50 was 7.89 µM.

Question: And the TGI [57]?
Answer: The TGI was 20.5 µM.

Question: What about the GI50 [58] of the same compound?
Answer: Its GI50 is 10.1 µM.

Question: What about the TGI [58] of the same compound?
Answer: Its TGI is 22.3 µM.

Question: What about the GI50 [59] of the same compound?
Answer: The GI50 was 13.4 µM.

Question: What about the TGI [59] of the same compound?
Answer: Its TGI is 29.1 µM.

From PubChem BioAssay (NCI)
